Test results taken from patent US9724318B2, “Compositions for improving mental concentration” (priority 2001, dated 2017).

Test: acute toxic test using a mouse, oral administration
Assay type: in vivo
Conditions: oral administration at 5 g/kg
Excerpt: The theanine used in the present invention has high safety. […] Also, especially L-theanine is known as a main component of umami (tastiness) of the green tea, and is also used as a food additive giving umami, without the limitation of its added amount under the regulation for food hygiene. Moreover, contrary to the conventional drugs, since there is no adverse action by theanine at all, the mind-concentration is safely and effectively achieved according to the composition of the present invention, whereby working efficiency, learning efficiency or the like, or sports performance can be improved.

In the case of `CCNC(=O)CC[C@H](N)C(=O)O` [theanine, γ-glutamyl ethylamide], the “abnormalities in the general states, weight and the like” value is reported as “no abnormalities” and the “cases of death in acute toxic test” value is reported as “no cases of death”.
